This is an account of results in US8357692B2, “Methods of treatment of bone degenerative diseases” (Washington University, priority 2010, dated 2013).

“Also recorded” adds a separate entry of the source. Read-outs that look alike come from different tables or passages of the source. A value given as a limit tells only on which side of the number the result lay.

In series [1] the test system is FM3A mouse mammary cells. The following applies: cited from earlier work.
Series [2] deals with P. falciparum FCR-3. The conditions noted are these: cited from earlier work; for antimalarial activity and selectivity in words: against P. falciparum in vitro.
The subject of series [3] is osteoblasts. The series can be described thus: BrdU incorporation in osteoblasts. It is filed as cell-based, mice. The following applies: 10 ng/ml, 24 hours, IL-17 receptor WT and KO osteoblasts. The method, then:
To test the function of IL-17 signaling in the osteoblast, the inventors first determined the IL-17 receptor is expressed in osteoblasts, and its expression is unaffected by TNFα or IL-17 stimulation. Primary osteoblasts were stimulated with vehicle control, IL-17 (10 ng/ml), TNF (5 ng/ml), or a combination of the two for 24 hours, and RT-PCR for the IL-17 receptor and actin was performed (FIG. 6). Next the inventors cultured BMMs in combination with primary osteoblasts, Vitamin D, and varying IL-17 concentrations. Osteoblasts were lifted, then osteoclasts were fixed and TRAP stained. […] Primary osteoblasts were stimulated with IL-17 or vehicle control for 24 hours, and RT-PCR was performed using primers for RANKL or actin. […] IL-17 receptor WT and KO osteoblasts were cultured with IL-17 (10 ng/ml) and BrdU for 24 hours, after which BrdU incorporation was measured by absorptiometry.
Background: Incorporation of labelled thymidine or its analogues reports DNA synthesis.

The subject of series [4] is coculture of bone marrow macrophages (BMMs) with osteoblasts. Description: Osteoclast formation in coculture of bone marrow macrophages with osteoblasts. It is filed as cell-based, mice. The conditions noted are these: BMMs with primary osteoblasts, Vitamin D, varying concentrations. On the procedure: Calvaria osteoblast isolation and culture: Whole calvaria were extracted from 3-4 day old pups and cleaned of soft and periostial tissue. Osteoblasts were liberated by 3×20 minute collagenase treatment at 37 degrees, shaking. Osteoblasts were transduced with appropriate virally expressed proteins when 50% confluent, selected with the appropriate antibiotic for 4 days, then plated for experiments. For cocultures, BMMs were cultured for 4 days prior to being lifted and then cultured with osteoblasts in α-MEM media containing pen/strep, 10% FBS and 10 nM VitD3, plus IL-17 or other cytokines where indicated.
To test whether IL-17 signaling is important in the pathogenesis of osteoporosis, the inventors mimicked the most common human form of osteoporosis, that of estrogen deficiency, by removing ovaries (ovx) in mice. […] Four weeks later, Micro-CT, a sensitive and specific measure of bone volume, was used to assess trabecular Bone Volume per Total Volume measured in the distal femora. […] Ovariectomized mice (n=5-7 mice per group) were treated with IL-17 blocking antibody or isotype control for two and four weeks and distal femora were analyzed by micro-CT.
To test the function of IL-17 signaling in the osteoblast, the inventors first determined the IL-17 receptor is expressed in osteoblasts, and its expression is unaffected by TNFα or IL-17 stimulation. […]

For series [5], the system named is RANKL. The series can be described thus: RT-PCR for RANKL in primary osteoblasts. Type of series: cell-based, mice. The following applies: 24 hours. The method, then:
RT-PCR: RNA was isolated using RNeasy kits (Qiagen); RLT lysis buffer was supplemented with β-mercaptoethanol (1%). Purified RNA was treated with DNase I (Invitrogen; Carlsbad, Calif.) prior to reverse transcription (RT). RT was performed using SuperScript III (Invitrogen). A negative control using RNA not subjected to reverse transcription was included in each assay. Quantitative PCR (qPCR) was performed using Applied Biosystems's (Foster City, Calif.) Power SYBR green master mix and gene specific primers. The qPCR reaction was run on Applied Biosystem's ABI Prism 7000. Transcript levels were normalized to cyclophilin.
To test the function of IL-17 signaling in the osteoblast, the inventors first determined the IL-17 receptor is expressed in osteoblasts, and its expression is unaffected by TNFα or IL-17 stimulation. Primary osteoblasts were stimulated with vehicle control, IL-17 (10 ng/ml), TNF (5 ng/ml), or a combination of the two for 24 hours, and RT-PCR for the IL-17 receptor and actin was performed (FIG. 6). Next the inventors cultured BMMs in combination with primary osteoblasts, Vitamin D, and varying IL-17 concentrations. Osteoblasts were lifted, then osteoclasts were fixed and TRAP stained. […] IL-17 receptor WT and KO osteoblasts were cultured with IL-17 (10 ng/ml) and BrdU for 24 hours, after which BrdU incorporation was measured by absorptiometry.

For series [6], the system named is CD4+ T-cells producing IL-17 (Th17 cells). Description: Flow cytometry of spleen cells for CD4+ T-cells producing IL-17. It is filed as in vivo. The following applies: ovx mice treated daily for two weeks. A general note: A flow cytometer gives signals particle by particle.
Series [7] relates to IL-17 production and TH17 cell differentiation. The conditions noted are these: cited from earlier work.
Series [8] deals with bone formation. The series can be described thus: Bone formation assay (calcein double labeling). Type of series: in vivo. The conditions noted are these: mice treated daily for 14 days, versus PBS control. The method, then: Bone formation assay (calcein double labeling): Mice were injected with 7.5 mg/kg calcein (Sigma-Aldrich; St. Louis, Mo.). Five days later mice were injected again, and tibias were harvested after an additional 2 days for histologic analysis. Dynamic assessment of trabecular bone formation was determined on non-decalcified sections using BioQuant software (Bioquant; Nashville, Tenn.). This software provided measures of bone surface, percent single-(sLS/BS) and double-labeled (dLS/BS) bone surface, mineralizing surface (MS/BS), mineral apposition rate (MAR), and bone formation rate (BFR/BS). Trabecular bone measurements were taken from a region encompassing a 500 μm-long field, across the width of the bone (located 100 μm below the growth plate). For each animal, 2 serial sections were analyzed and the measurements averaged. Pictures were obtained using an Olympus 1×51 fluorescent microscope fitted with Olympus DP70 camera (Olympus; Center Valley, Pa.).
Since Halofuginone inhibits type I collagen synthesis by fibroblasts and other cells, bone formation rates were tested to determine whether the rates are reduced in mice treated with the chemical. Mice were treated daily with HL or vehicle control for 14 days, while Calcein was injected on day 7 and 12, and Mineral Apposition Rates (MAR) and Bone Formation Rates (BFR) were determined.

For series [9] the following is noted: healthy male volunteers, cited from earlier work.
Series [10] relates to ovariectomy-induced bone loss. Description: Ovariectomy-induced bone loss in mice, micro-CT of distal femora. It is filed as in vivo.
The nature of series [11]: Body composition by MRI. Type of series: in vivo, mice. The conditions noted are these: 12 weeks of treatment, versus PBS. On the procedure: MRI: Measurements of body composition were performed using the magnetic resonance imaging facility located at the Animal Model Research Core at Washington University (CNRU grant NIB P30 DK56341).
IL-17A inhibits adipocyte differentiation from human mesenchymal stem cells (Shin et al., Biochem. Pharmacol., 77(12), 1835-1844, 2009). IL17R−/− mice are heavier and have higher leptin levels, which is a marker of adopocyte mass (Galic et al., Mol. Cell Endocrinol., 316(2), 129-139, 2010; Goswami et al., Eur J Immunol, 39(10), 2831-2839, 2009). Leptin can stimulate IL-17 production (Liu et al., Br. J. Ophthalmol., 92(4), 557-561, 2008), and blood IL-17 levels are increased in obese women (Sumarac-Dumanovic et al., Int. J. Obes. (Lond), 33(1), 151-156, 2009). […] Eight week old mice (n=6 mice per group) were treated with Halofuginone or PBS for 12 weeks, after which body content was measured using MRI.

In series [12] the test system is collagen α1(I). The conditions noted are these: cited from earlier work.
The subject of series [13] is fibrosis accumulation. The following applies: rat urethral stricture, cirrhosis, pulmonary fibrosis models; cited from earlier work.
In series [14] the test system is serum CTx. Description: Serum CTx ELISA in ovariectomized mice. The following applies: ovx mice treated daily, two weeks, relative to sham operated mice. Type of series: in vivo. (In general: In an ELISA, binding on a coated surface is turned into a signal by an enzyme label.)
[15] abbreviates: read-out: EC50 (M) cytotoxicity, Table 1, against FM3A mouse mammary cells.
Setting [16] is: Table 1, against P. falciparum FCR-3, in vitro, read-out: EC50 (M) antimalarial activity.
The mark [17] stands for this setting: read-out: EC50 (M) cytotoxicity, Table 2, against FM3A mouse mammary cells.
The mark [18] stands for this setting: Table 2, against P. falciparum FCR-3, in vitro, read-out: EC50 (M) antimalarial activity.

Take `O=C(CC1NCCCC1=O)Cn1cnc2ccccc2c1=O` (stereo not drawn) [compound 7]: the figures for the EC50 in series [1] (setting [15]) and in [2] (setting [16]) were 1e-05 M and 2e-08 M, respectively. Besides, the “antimalarial activity and selectivity in words” value in [2] was “potential antimalarial activity with high selectivity”.
In the case of `O=c1c2ccccc2ncn1CC1(O)C[C@@H]2NCCC[C@@H]2O1` (stereo partly drawn) [compound 2, isofebrifugine], the EC50 in series [1] is 1.8e-07 M; in [2] (setting [16]), 3.4e-09 M.
With `O=C(C[C@H]1NCCC[C@@H]1O)Cn1cnccc1=O` [compound 12], the EC50 was above 1.9e-05 M in series [1] (setting [15]) and 6e-07 M in [2] (setting [16]).
For the molecule “IL-17: interleukin-17, cytokine promoting osteoclast formation, added to cultures”, in [3], the “osteoblast proliferation (BrdU incorporation)” value was “does not affect osteoblast proliferation”. Also, the osteoclast formation entry in series [4] is given as “potently induced osteoclast formation”. For the same molecule, in [5], the “RANKL mRNA expression in the osteoblast” value is recorded as “induced by IL-17”.
For the molecule `CNc1ccccc1C(=O)N[C@H]1C(O)=C[C@@H]2[C@@H](O)CCCN2C1(C)C` [compound 39], the EC50 in series [1] (setting [17]) was above 1.7e-05 M; in [2] (setting [18]) it was 6e-07 M.
For `CC1(C)[C@@H](N2CNc3ccccc3C2=O)C(O)=C[C@@H]2[C@@H](O)CCCN21` [compound 38], the EC50 in [1] (setting [17]) is above 1.6e-05 M; in series [2] (setting [18]), 4.2e-07 M.
Consider `O=c1c2ccccc2ccn1CC1(O)C[C@@H]2NCCC[C@@H]2O1` (stereo partly drawn) [compound 15], for which the EC50 in [1] was above 6.3e-06 M; in series [2] (setting [16]) it was 2.1e-06 M.
`CCN(CC)CCCC(C)Nc1ccnc2cc(Cl)ccc12` (stereo not drawn) [chloroquine]: the EC50 in series [1] (setting [15]) was 3.2e-05 M; in [2] (setting [16]) it was 1.8e-08 M.
In the case of `O=C(C[C@@H]1NCCC[C@H]1O)Cn1cnc2cc(Br)c(Cl)cc2c1=O` [Halofuginone, 7-Bromo-6-chloro-3-[3-[(2S,3R)-3-hydroxy-2-piperidinyl]-2-oxopropyl]-4-quinazolinone], the “percentage of CD4+ T-cells producing IL-17” value in series [6] is given as “reduces Th17 cells; also recorded: significantly reduced”. The TGFβ inhibition result in series [7] (at concentrations that inhibit IL-17 production) was “no TGFβ inhibition is seen”. For the same molecule, the “IL-17 production and TH17 cell differentiation” value in series [7] was “inhibits IL-17 production and TH17 cell differentiation”. Moreover, the bone formation rates entry in series [8] is recorded as “does not affect bone formation; also recorded: equivalent bone formation rates”. Moreover, the maximal tolerated dose in series [9] (daily oral dose) is listed as 1.5 mg. In addition, the tolerability result in series [9] (oral, 1.5 to 2.5 mg) is “moderately tolerated”. Moreover, the “tolerability of single oral doses” value in series [9] (single oral doses of 0.07 and 0.5 mg) was “safe and well tolerated”. Further, in [10] (four weeks after ovariectomy, daily injection), the “Connectivity Density” value is on record as “completely protected”. Also, in series [10] (four weeks post-ovx), the ovariectomy-induced bone loss result was “lost significantly less bone than PBS injected mice; also recorded: protects from ovariectomy-induced bone loss; also recorded: lose significantly less bone”. Further, the “BV/TV, BV, connectivity density, trabecular thickness, and trabecular number” value in [10] (ovx mice, daily treatment, four weeks, relative to sham) is on record as “but not in Halofuginone treated ovx mice relative to sham”. Moreover, in series [10] (ovx mice, daily treatment, two weeks), the “Bone volume per total volume (BV/TV)” value is reported as “significantly lower in vehicle treated ovx mice compared with either sham or Halofuginone treated ovx mice”. In [10] (two weeks post-ovx), the ovariectomy-induced bone loss entry is given as “lost significantly less bone than PBS treated mice; also recorded: protects from ovariectomy-induced bone loss; also recorded: lose significantly less bone”. In series [11], the percent body fat entry is listed as “reduced percent body fat”, the percent lean mass entry is on record as “small but statistically significant increase” and the total fat mass entry was “significantly less total fat mass”. Further, the “Collagen type II or III” value in series [12] is “not inhibited”. The “collagen α1(I) mRNA and protein levels” value in series [12] (variety of cells) was “inhibits collagen α1(I) mRNA and protein levels”. For the same molecule, in series [13], the fibrosis accumulation result is “inhibit fibrosis accumulation”. In series [14], the “serum CTx” value is recorded as “reduces serum CTx; also recorded: blunted, non-statistically significant, increase”.
With `C[C@@H]1CC[C@H]2[C@@H](C)C(=O)O[C@@H]3O[C@@]4(C)CC[C@@H]1[C@]32OO4` [artemisinin], the EC50 in series [1] is 1e-05 M; in [2] (setting [16]), 1e-08 M.
Turning to `O=c1ccncn1CC1(O)C[C@@H]2NCCC[C@@H]2O1` (stereo partly drawn) [compound 13], the concentration giving a half-maximal response (EC50) in series [1] is 7e-06 M; in series [2] (setting [16]) it was 4e-08 M.
Take `O=c1c2ccccc2ncn1CC(O)C[C@H]1NCCC[C@@H]1O` (stereo partly drawn) [compound 8]: the EC50 in series [1] (setting [15]) was 1.5e-05 M; in series [2] (P. falciparum in vitro, read-out: EC50, in vitro antimalarial activity), 2e-08 M. Moreover, the “antimalarial activity and selectivity in words” value in [2] was “strongly active and selective”.
As for `O=C(C[C@H]1NCCC[C@@H]1O)Cn1cnc2ccccc2c1=O` [compound 1, febrifugine], the EC50 is 1.7e-07 M in series [1] (setting [15]) and 7e-10 M in series [2] (setting [16]).
On to `O=C(C[C@H]1NCCC[C@@H]1O)Cn1ccc2ccccc2c1=O` [compound 14], for which the EC50 was above 1.6e-05 M in series [1] (setting [15]) and 5e-07 M in series [2] (setting [16]).

As a reminder, the EC50 is the concentration needed to bring the measured effect to its halfway point.
